Common to all, as to assay type: cell-based
The subject of experiment [1] is transduced T cells. Kind of experiment: Exhaustion / inhibitory receptor (ICI) marker expression of T cell products. The conditions noted are these: Acceptable range ≤% of exhausted cells to control; Table 5 summary grade. The method, then: The sustained expression of multiple inhibitory receptors may be the hallmark of exhausted T cells. Common to both CD4+ and CD8+ exhausted T cells may be the surface expression of multiple inhibitory receptors, e.g., 2B4, 4-1BB, CD39, CD69, LAG3, PD-1, TIGIT, and TIM3. Expression of these inhibitory receptors in T cell products prepared by Panobinostat treatment at different time was determined. […] Panobinostat treatment on Day 0 increased % PD-1+ cells in T cell products as compared with other treatments and control.
CD39 may be considered as a marker for exhausted T cells, e.g., CD8+ T cells, in cancer. CD69 is a membrane-bound, type II C-lectin receptor and may be considered as an early marker of lymphocyte activation due to its rapid appearance on the surface of the plasma membrane after stimulation. […] Dasatinib may have little effect on % of terminally differentiated CD39-positive state (CD39+CD69+) and % of CD69+ state in T cell products.
Common to both CD4+ and CD8+ exhausted T cells may be the surface expression of multiple inhibitory receptors including 2B4, 4-1BB, CD39, CD69, LAG3, PD-1, TIGIT, and TIM-3.

For experiment [2], the system named is transduced T cells. The experiment can be described thus: Fold expansion and manufacturing metrics of T cell products. As to the method: (DMSO low concentration=low volume=0.00001%; vehicle control for Panobinostat at low concentration (1 nM); DMSO high concentration=high volume=1.5%; vehicle control for valproic acid at high concentration (1.5 mM); all except Na butyrate (water) were dissolved in DMSO)
(§1) On Day 1, the activated CD4/CD8-selected cells were transduced with Lentiviral vectors expressing a target-specific exogenous TCR. On Day 2, the culture media were removed and the transduced cells were fed with fresh media in the absence of Panobinostat, SAHA+IL-21, and AKTi VIII and in the presence of cytokines, for cell expansion. On Day 7-Day 10, cells were harvested and cryopreserved for harvest metrics, phenotypic analysis, and functional studies including Incucyte tumor serial killing assay, cytokine production, and exhaustion analysis. To test the effects of TKi, e.g., dasatinib, on T cell products, dasatinib was added on Day 2 (5 nM) and Day 5 (10 nM) during feeding and expansion.
(§2) On Day 0, thawed and rested CD4/CD8-selected cells were activated in the presence of anti-CD3/anti-CD28 antibodies. On Day 1, the activated CD4/CD8-selected cells were transduced with Lentiviral vectors expressing a target-specific exogenous TCR and exogenous CD8 molecules. On Day 2, the culture media were removed and the transduced cells were fed with fresh media containing cytokines for cell expansion. Dasatinib was added on Day 2 or on Day 5. On Day 7-Day 10, cells were harvested and cryopreserved for harvest metrics, phenotypic analysis, and functional studies including Incucyte tumor serial killing assay, cytokine production, and exhaustion analysis.

The test system of experiment [3] is transduced T cells. Kind of experiment: Response to Ag exposure (cytokine expression, exhaustion). The conditions noted are these: Acceptable range ≥Control; Table 5 summary grade.
Text: as §1

The subject of experiment [4] is transduced T cells. The experiment can be described thus: Transduction efficiency by flow cytometry gated on CD3+CD8+ TCR+ cells. The conditions noted are these: AKTi VIII 250 nM added Day 0 during activation; vs untreated control; FIG. 19B, 24B. The method, then:
Transduction efficiency of transduced T cells treated with different HDACi were determined by flow cytometry gated on CD3+CD8+ TCR+ cells.
as §1, §2

Experiment [5] deals with UACC257. The experiment can be described thus: Tumor cell killing by T cell products (Incucyte tumor serial killing assay). The conditions noted are these: AKTi VIII 250 nM added Day 0 during activation, UACC257-RFP, E:T=3:1, n=3 patients, vs Panobinostat and controls, FIG. 21A.
Text: as §1
T cell products prepared by activating T cells obtained from three patients (n=3) in the presence of Panobinostat, SAHA+IL-21, or AKTi VIII were compared with regards to tumor killing activity when contacting target cells, e.g., UACC257, which express a report gene encoding red florescent protein (RFP), with E:T=3:1. TCR-positive cells were normalized.
(n=3 healthy donors; TCR normalized T cells:UACC257-iRFP=3:1).

Experiment [6] concerns transduced T cells. Kind of experiment: Memory T cell phenotype by flow cytometry. As to the method:
Phenotypes of transduced T cells treated with different HDACi were determined by flow cytometry gated on CD3+CD8+ TCR+ cells. […] No major difference in immune-checkpoint-inhibitor (ICI) marker expression was observed.
Using Panobinostat as example, phenotypes of T cell products prepared by Panobinostat treatment on Day 0 (activation), Day 1 (transduction), or Day 2 (feeding) were determined.
as §1, §2
In general terms: In flow cytometry, cells or beads pass a laser one at a time.

Entries after “also recorded” stand apart in the source; their conditions may differ.

The source of these data is patent publication US20230355678A1, “METHODS FOR IMPROVING T CELL EFFICACY” (IMMATICS US, INC., priority 2022, published 2023).

In the case of “3-[1-[[4-(7-phenyl-3H-imidazo[4, 5g]quinoxalin-6-yl)phenyl]methyl]piperidin-4-yl]-1H-benzimidazol-2-one [AKTi VIII]”, in experiment [1], the Exhaustion phenotype result was “=”. Also, in experiment [2] (AKTi VIII 250 nM added Day 0 during activation, vs untreated control, FIG. 19A, 24A), the “fold expansion of T cell products” value is given as “little effect”. Moreover, the “manufacturing metrics and phenotype” value in experiment [2] (AKTi-treated cells compared with Panobinostat and SAHA+IL-21 treated cells) is “relatively better”. Further, the “Response to Ag exposure (cytokine expression, exhaustion)” value in experiment [3] is “+/=”. Further, the “% CD8+ TCR+ T cells (transduction efficiency)” value in experiment [4] is reported as “higher”. Also, the tumor killing activity result in experiment [5] is recorded as “better tumor killing activity”; in experiment [5] (listed as AKTi), “better tumor-killing activity”. Moreover, the “% of Tcm (CD45RA−CCR7+), Teff (CD45−CCD7−), and TemRA (CD45RA+CCR7-)” value in experiment [6] (AKTi VIII 250 nM added Day 0 during activation, FIG. 20A) is “little effect”. Besides, the “total number of Tnaive (CD45RA+CCR7+) in T cell products” value in experiment [6] (AKTi VIII 250 nM added Day 0 during activation, vs Panobinostat, SAHA+IL-21 and untreated control, FIG. 20B, 25B) is on record as “best total number; also recorded: increased”. The “% Tnaive (CD45RA+CCR7+) in T cell products” value in experiment [6] (AKTi VIII 250 nM added Day 0 during activation, vs untreated control, FIG. 20A, 25A) was “increased”. Besides, in experiment [6] (AKTi VIII 250 nM added Day 0 during activation, vs untreated control, FIG. 20C), the “expression of Tnaive and Tcm markers (CD27, CD28, CD62L)” value is given as “little effect”. In experiment [6] (AKTi VIII 250 nM added Day 0 during activation, vs untreated control, FIG. 25A), the “% TemRA in T cell products” value was “decreased”. The “Memory Phenotype” value in experiment [6] (Acceptable range: Higher % of Tscm, Tcm, lower % of TemRA, improvements in other memory markers (CD62L, CD28, CD27), Table 5 summary grade) is “+/=”. Also, in experiment [6] (comparative study, FIG. 25A-B), the “Ranking of T cell products from the most Tnaive and the least TemRA to the least Tnaive and the most TemRA” value is listed as “dasatinib (5 nM) on Day 2 >dasatinib (10 nM) on Day 5 >AKTi VIII >Panobinostat”.
